Holding throughout (type): functional
Experiment [1] relates to Lepidoptera. Put plainly: Insecticidal activity against Lepidoptera infected rice plant assessed as increase in grain yield at 0.75 kg ai/ha applied as emulsified concentrates through foliar spray on 30 to 50 days post planting (reference value: 28%).
Experiment [2] deals with Lepidoptera. The experiment can be described thus: Insecticidal activity against Lepidoptera infected rice plant assessed as white earhead damage at 0.75 kg ai/ha applied as emulsified concentrates through foliar spray on 30 to 50 days post planting (reference value: 12.17%).
In experiment [3] the test system is Lepidoptera. Put plainly: Insecticidal activity against Lepidoptera infected rice plant assessed as dead heart damage at 0.75 kg ai/ha applied as emulsified concentrates through foliar spray on 30 to 50 days post planting (reference value: 11.87%).
Experiment [4] relates to Lepidoptera. Put plainly: Insecticidal activity against Lepidoptera infected rice plant assessed as increase in grain yield at 1 kg ai/ha applied as granules on 30 to 50 days post planting (reference value: 28%).
For experiment [5], the system named is Lepidoptera. Put plainly: Insecticidal activity against Lepidoptera infected rice plant assessed as white earhead damage at 1 kg ai/ha applied as granules on 30 to 50 days post planting (reference value: 12.17%).
For experiment [6], the system named is Lepidoptera. Put plainly: Insecticidal activity against Lepidoptera infected rice plant assessed as dead heart damage at 1 kg ai/ha applied as granules on 30 to 50 days post planting (reference value: 11.87%).
The subject of experiment [7] is Lepidoptera. Put plainly: Insecticidal activity against Lepidoptera infected rice plant assessed as increase in grain yield (reference value: 28%).
Experiment [8] relates to Lepidoptera. Put plainly: Insecticidal activity against Lepidoptera infected rice plant assessed as white earhead damage (reference value: 12.17%).
Experiment [9] has as its system Lepidoptera. Put plainly: Insecticidal activity against Lepidoptera infected rice plant assessed as dead heart damage (reference value: 11.87%).

In the case of `CCOP(=S)(OCC)Oc1cc(C)nc(C(C)C)n1` [DIMPYLATE], the Crop_yield in the experiment with Lepidoptera [1] turned out to be 42%. Also, the values for the Activity in the experiment with Lepidoptera [2] and in the experiment on Lepidoptera [3] were 3.19% and 8.14%, respectively.

On to `CCOP(=O)(/N=C1\SCC(C)S1)OCC` (stereo unspecified) [CYTROLANE], for which the Crop_yield with Lepidoptera [4] came out at 32%. In addition, the Activity with Lepidoptera [5] came to 3.14%; in the experiment with Lepidoptera [6], 3.63%.

Take `CNC(=O)/C=C(\C)OP(=O)(OC)OC` [MONOCROTOPHOS]: the Crop_yield in the experiment on Lepidoptera [7] is reported as 37%. The Activity amounted to 6.31% in the experiment with Lepidoptera [8] and 4.76% with Lepidoptera [9].

On to `CCOP(=S)(OCC)Oc1cnc2ccccc2n1` [QUINALPHOS], for which, in the experiment with Lepidoptera [7], the Crop_yield is listed as 28%. Also, the Activity with Lepidoptera [8] amounted to 6.33%; with Lepidoptera [9] it was 4.12%.

On to `CNC(=O)Oc1cccc2c1OC(C)(C)C2` [CARBOFURAN], for which the Crop_yield in the experiment with Lepidoptera [4] is reported as 35%. The Activity in the experiment on Lepidoptera [5] is 5.14%; with Lepidoptera [6] it was 4.15%.

Regarding `CCOP(=S)(OCC)Oc1nc(Cl)c(Cl)cc1Cl` [CHLORPYRIFOS], the figures for the Crop_yield in the experiment with Lepidoptera [4] and with Lepidoptera [1] were 37% and 36%, respectively. The Activity in the experiment with Lepidoptera [2] turned out to be 6.72%; in the experiment with Lepidoptera [5] it was 6.18%; with Lepidoptera [3] it was 7.26%; in the experiment on Lepidoptera [6], 5.39%.

Values taken from ChEMBL document CHEMBL3045186, “Assessments of crop losses in rice ecosystems due to stem borer damage (Lepidoptera: Pyralidae)” (2006).
